Drawing on PubChem BioAssay (NCI), this text covers GI50 and TGI for eight compounds.

Some test systems named below: HCT-116 colon; SNB-19 CNS; M14 melanoma; SNB-75 CNS; NCI-H460 lung; U251 CNS; UO-31 renal; SK-MEL-28 melanoma; HCT-15 colon; MCF7 breast.
Common to all, as to assay: NCI-60 cell line screen, 48 h

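Results reflect a 48-hour exposure of cells in 96-well plates to compound at five concentrations. GI50 marks 50% less growth. At the TGI there is no net growth.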

For `COc1ccccc1CNCCCN1C(=O)c2ccc3c4c(ccc(c24)C1=O)C(=O)N(CCCN)C3=O`, the GI50 is 0.349 µM in the test with HCT-116 colon; 1.58 µM in the test with SNB-19 CNS; 0.833 µM in the test on M14 melanoma; 1.36 µM in the test with SNB-75 CNS; 0.553 µM in the test on NCI-H460 lung; 1.77 µM with U251 CNS. Moreover, the GI50 in the test on UO-31 renal was 1.96 µM; in the test with SK-MEL-28 melanoma, 1.74 µM; in the test on HCT-15 colon it was 1.41 µM; in the test with MCF7 breast, 0.329 µM. The TGI in the test on HCT-116 colon was found to be 1.23 µM; in the test on SNB-19 CNS, 3.37 µM; with M14 melanoma, 2.34 µM; in the test with SNB-75 CNS, 2.72 µM; with NCI-H460 lung, 2.16 µM; with U251 CNS it was 3.99 µM. Also, the TGI in the test on UO-31 renal worked out at 5.35 µM; in the test with SK-MEL-28 melanoma it was 3.75 µM; with HCT-15 colon it was 3.67 µM; in the test with MCF7 breast, 1.6 µM.
`CC1=C(C(=O)N(C)c2ccc(Cl)c(C(=O)OC(C)C)c2)SCCO1`: the TGI is more than 100 µM in the test with HCT-116 colon; more than 100 µM in the test on SNB-19 CNS; more than 100 µM with M14 melanoma; 90.8 µM with SNB-75 CNS; more than 100 µM in the test on NCI-H460 lung; more than 100 µM in the test on U251 CNS. Also, the TGI with UO-31 renal, with SK-MEL-28 melanoma, in the test on HCT-15 colon and in the test with MCF7 breast was more than 100 µM throughout.
Take `N#CSCc1ccc(Cl)c(CSC#N)c1`: the GI50 with HCT-116 colon is 0.0379 µM; in the test with SNB-19 CNS it was 10.5 µM; with M14 melanoma, 0.0759 µM; in the test with SNB-75 CNS, 0.601 µM; in the test on NCI-H460 lung, 0.807 µM; in the test on U251 CNS, 9.12 µM. Moreover, the GI50 in the test with UO-31 renal was 0.154 µM; in the test with SK-MEL-28 melanoma it was 3.58 µM; in the test with HCT-15 colon it was 0.143 µM; with MCF7 breast it was 0.0465 µM. Further, the TGI is 14.8 µM with HCT-116 colon; more than 100 µM in the test on SNB-19 CNS; 14.8 µM with M14 melanoma; 59.9 µM in the test on SNB-75 CNS; 12.6 µM in the test on NCI-H460 lung; 28.4 µM with U251 CNS. The TGI in the test with UO-31 renal was 12.8 µM; in the test with SK-MEL-28 melanoma it was 22.4 µM; with HCT-15 colon, 25.1 µM; in the test on MCF7 breast, 25.6 µM.
As for `O=[N+]([O-])c1ccc(N2CCC(CCCC3CCN(c4ccc([N+](=O)[O-])cc4[N+](=O)[O-])CC3)CC2)c([N+](=O)[O-])c1`, the TGI is more than 100 µM in the test on HCT-116 colon; 34.8 µM in the test with SNB-19 CNS; 26.7 µM with M14 melanoma; 32.8 µM with SNB-75 CNS; 28.8 µM in the test on NCI-H460 lung; 29.2 µM in the test on U251 CNS. Further, the TGI worked out at 26.9 µM in the test on UO-31 renal, 28.9 µM in the test on SK-MEL-28 melanoma, 41.6 µM in the test on HCT-15 colon and 28.3 µM with MCF7 breast.
As for `Nc1ccccc1C#C/C=C\C#Cc1cccc(O)c1`, the GI50 was 2.73 µM in the test on HCT-116 colon; 17.1 µM in the test with SNB-19 CNS; 1.3 µM in the test on M14 melanoma; 1.36 µM with SNB-75 CNS; 3.19 µM in the test with NCI-H460 lung; 4.09 µM in the test on U251 CNS. Also, the GI50 in the test on SK-MEL-28 melanoma was 8.97 µM; in the test with HCT-15 colon it was 2.04 µM; in the test on MCF7 breast, 0.918 µM. The TGI in the test on HCT-116 colon was 12.2 µM; in the test with SNB-19 CNS, more than 55.7 µM; with M14 melanoma it was 5.65 µM; in the test with SNB-75 CNS, 13.5 µM; in the test on NCI-H460 lung, more than 34.2 µM; in the test with U251 CNS it was 17.1 µM. For the same compound, the TGI is 13.9 µM in the test with UO-31 renal, 31.9 µM with SK-MEL-28 melanoma, 13.9 µM in the test with HCT-15 colon and 11.2 µM in the test with MCF7 breast.
As for `O=C(Nc1ccc(Oc2cccc(F)c2)c(Cl)c1)c1cnccn1`, the GI50 in the test with HCT-116 colon is 0.596 µM; in the test on SNB-19 CNS, 2.74 µM; in the test on M14 melanoma, 0.78 µM; with SNB-75 CNS, 1.06 µM; with NCI-H460 lung, 1.79 µM; in the test on U251 CNS it was 1.51 µM. Also, the GI50 in the test with UO-31 renal is 2.93 µM; in the test with SK-MEL-28 melanoma, 28.6 µM; with HCT-15 colon, 0.28 µM; in the test with MCF7 breast, 0.413 µM. Further, the TGI in the test on HCT-116 colon was more than 50 µM; with SNB-19 CNS it was more than 50 µM; in the test with M14 melanoma, more than 50 µM; with SNB-75 CNS, 4.22 µM; in the test with NCI-H460 lung, more than 50 µM; in the test with U251 CNS it was more than 50 µM. For the same compound, the TGI in the test with UO-31 renal, in the test on SK-MEL-28 melanoma, in the test on HCT-15 colon and in the test with MCF7 breast was more than 50 µM throughout.
`Nc1c(C(=O)c2cccc(C#CCO)c2)cnn1-c1ccc(F)cc1`: the GI50 in the test on HCT-116 colon, in the test with SNB-19 CNS, with M14 melanoma, in the test with SNB-75 CNS, in the test with NCI-H460 lung and in the test with U251 CNS was more than 25 µM in each case. The GI50 in the test on UO-31 renal, in the test with SK-MEL-28 melanoma, in the test with HCT-15 colon and in the test with MCF7 breast was more than 25 µM throughout. In addition, the TGI in the test on HCT-116 colon, with SNB-19 CNS, in the test with M14 melanoma, in the test with SNB-75 CNS, with NCI-H460 lung and with U251 CNS was more than 25 µM in each case. The TGI in the test with UO-31 renal, in the test with SK-MEL-28 melanoma, in the test on HCT-15 colon and in the test on MCF7 breast was more than 25 µM each time.
For `COC(=N)c1c(N)[n+]([O-])c2ccc(F)cc2[n+]1[O-]`, the GI50 in the test with HCT-116 colon was more than 100 µM; in the test with SNB-19 CNS, more than 100 µM; in the test on M14 melanoma, more than 100 µM; with SNB-75 CNS, 96.2 µM; in the test with NCI-H460 lung it was 58.1 µM; in the test on U251 CNS, more than 100 µM. In addition, the GI50 in the test on UO-31 renal was more than 100 µM; in the test on SK-MEL-28 melanoma, more than 100 µM; in the test with HCT-15 colon, more than 100 µM; in the test with MCF7 breast, 76.4 µM. Besides, the TGI in the test on HCT-116 colon, in the test with SNB-19 CNS, with M14 melanoma, in the test with SNB-75 CNS, in the test on NCI-H460 lung and in the test with U251 CNS was more than 100 µM throughout. Further, the TGI with UO-31 renal, with SK-MEL-28 melanoma, in the test on HCT-15 colon and with MCF7 breast was more than 100 µM in each case.
